Reference: US20080299186A1, “COATINGS FOR APPLYING SUBSTANCES ONTO SUBSTRATE CARRIER” (Schering-Plough Healthcare Products, Inc., priority 2007, published 2008)
Structures can show the parent of a compound that is named as a salt.

Assay: Phenylephrine HCl stability study: chemical compatibility with film forming polymers and plasticizers, HPLC degradation products
Format: physicochemical
Description: Methods: Chemical compatibility of Phenylephrine HCl with various film forming polymers or polymer blends and plasticizers (Table 2) was conducted. […] Two additional formulations (C and F) were used as controls. Sample C contained Phenylephrine HCl dissolved in water without any additional cellulosic or non-cellulosic polymers. Sample F comprised phenylephrine HCl in the absence of water. Both controls were subjected to the same drying conditions as the other example films prior to analysis.
Aliquots from the bulk coating dispersion equivalent to approximately 10 unit doses of the active were poured into flat, 4-6″ plastic weight boats and allowed to dry overnight for approximately 15-16 hours at 40C under vacuum. The amount per film equivalent to 10 unit doses was chosen for achieving reproducible and reliable analytical results for the Phenylephrine HCl degradants. […] These dried film samples were then stored at 50C in closed amber jars for 14 days. Each film was then analyzed by HPLC for the presence of degradation products. Separation of Phenylephrine HCl degradation products was accomplished on an HPLC using a Prontosil EPS C18, 100×4.6 mm (3 μparticle size) column manufactured by Bischoff Chromatography and using a gradient test method. Detection was by UV at 215 nm. The column was thermostated at 25° C. and an injection volume of 10 μL of sample solution was used. […]

SMILES | total PE degradation, result in words (compared with controls) (stored at 50C in closed amber jars for 14 days) | residual water after drying (after drying of the film sample)
CNC[C@H](O)c1cccc(O)c1 [F, Phenylephrine HCl] | no appreciable degradation occurred | 
CNC[C@H](O)c1cccc(O)c1 [C, Phenylephrine HCl] |  | 10-15%
